{"source": "paper PMC9144936", "about": "“New Cu^+2 Complexes with N-Sulfonamide Ligands: Potential Antitumor, Antibacterial, and Antioxidant Agents” (Molecules, 2022)", "test_system": "Swiss mice", "conditions": "mouse, in vivo, ip, 150 mg/kg/day", "experimental": "This study was carried out for a period of 2 weeks on 10 adult Swiss mice, with 5 males and 5 females.\nA subacute toxicity study was carried out for a period of 2 weeks for the C2 complex. In total, 10 adult Swiss mice, 32.26 ± 1.3 g body weight, with 5 males and 5 females, were used. The mice were caged in standard polypropylene cages, in standard laboratory conditions (12 h light/dark cycle, temperature 25 ± 1 °C, and relative humidity 55 ± 5%). Standard lab chow, provided by the “Cantacuzino” National Insitute for Research and Development Bucharest, and water were freely available. All procedures performed on mice complied with the European Directive 2010/63/EU and the national low 43/2014 for Protection of Animals Used for Scientific Purposes. This study was approved by the Bioethical Board of the Faculty of Veterinary Medicine Cluj-Napoca (accord no.290/22.11.2021) and the Veterinary Sanitary Direction and Food Safety (accord no.284/21.12.2021). All mice received i.p. 150 mg complex C2/kg b.w./day, for 2 weeks. […]\nThe general clinical status and the body weight were recorded daily. […]\nThe liver and kidneys were also removed. […] To determine the hematological toxicity, erythrogram, leukogram, and thrombogram were assessed using a Diatron Abascus Junior Vet 3."}
{"substance": "[Cu(N-(5-Ethyl--[1,3,4]-Thiadiazole-2-yl) Naphtalenesulfonamidate)2(py)2(H2O)] [C2]", "values": [{"measurement": "clinical changes", "result": "did not undergo clinical changes"}, {"measurement": "histological analyses of kidney and liver", "result": "normal structure"}]}
